From patent US20050026189A1, “Microbial operons” (priority 2003, published 2005)

Experiments:
[1] = system: E. coli transcribing IPTG-inducible antisense clones; assay: Cell-based assay: antibiotic sensitivity of E. coli transcribing antisense to ribosomal protein genes or to genes not involved in protein synthesis (FIGS. 8, 9); parameters: species or system Escherichia coli
From the text: The effectiveness of the above cell-based assay was validated using constructs transcribing antisense RNA to the proliferation required Escherichia coli genes rplL, rplJ, and rplW encoding ribosomal proteins L7/L12, L10 and L23 respectively. These proteins are essential components of the protein synthesis apparatus of the cell and as such are required for proliferation. These constructs were used to test the effect of antisense transcription on cell sensitivity to antibiotics known to bind to the ribosome and thereby inhibit protein synthesis. Constructs transcribing antisense RNA to several other genes (elaD, visC, yohH, and atpE/B), the products of which are not involved in protein synthesis were used for comparison. […]
The cell populations containing vectors producing AS-elaD or AS-rplW were exposed to a range of IPTG concentrations in liquid medium to obtain the growth inhibitory dose curve for each clone (FIG. 7). First, seed cultures were grown to a particular turbidity measured by the optical density (OD) of the growth solution. […] The cells were grown for up to 15 hours and the extent of growth was determined by measuring the optical density of the cultures at 600 nm. […]

[2] = system: E. coli transcribing antisense RNA to rplL and rplJ (AS-rplL/J); assay: microbe, parasite or virus in culture; type: cell-based; conditions: for Fold Increase in Sensitivity: IC50 without IPTG versus IC50 with 400 μM IPTG; for Sensitivity Increased?: statistically significant decrease in the IC50 value in the presence of inducer (IPTG)
Method: The effectiveness of the above assays was validated using proliferation-required genes from E. coli which were identified using procedures similar to those described above. Antibiotics of various chemical classes and modes of action were purchased from Sigma Chemicals (St. Louis, Mo.). Stock solutions were prepared by dissolving each antibiotic in an appropriate aqueous solution based on information provided by the manufacturer. The final working solution of each antibiotic contained no more than 0.2% (w/v) of any organic solvent. To determine their potency against a bacterial strain engineered for transcription of an antisense comprising a nucleotide sequence complementary to a proliferation-required 50S ribosomal protein, each antibiotic was serially diluted two- or three-fold in growth medium supplemented with the appropriate antibiotic for maintenance of the antisense construct. At least ten dilutions were prepared for each antibiotic. 25 μL aliquots of each dilution were transferred to discrete wells of a 384-well microplate (the assay plate) using a multi-channel pipette. Quadruplicate wells were used for each dilution of an antibiotic under each treatment condition (plus and minus inducer). Each assay plate contained twenty wells for cell growth controls (growth medium replacing antibiotic), ten wells for each treatment (plus and minus inducer, in this example IPTG). Assay plates were usually divided into the two treatments: half the plate containing induced cells and an appropriate concentrations of inducer (in this example IPTG) to maintain the state of induction, the other half containing non-induced cells in the absence of IPTG.
Cells for the assay were prepared as follows. Bacterial cells containing a construct, from which transcription of antisense nucleic acid comprising a nucleotide sequence complementary to rplL and rplJ (AS-rplL/J), which encode proliferation-required 50S ribosomal subunit proteins, is inducible in the presence of IPTG, were grown into exponential growth (OD600 0.2 to 0.3) and then diluted 1:100 into fresh medium containing either 400 μM or 0 μM inducer (IPTG). These cultures were incubated at 37° C. for 2.5 hr. After a 2.5 hr incubation, induced and non-induced cells were respectively diluted into an assay medium at a final OD600 value of 0.0004. The medium contained an appropriate concentration of the antibiotic for the maintenance of the antisense construct. In addition, the medium used to dilute induced cells was supplemented with 800 μM IPTG so that addition to the assay plate would result in a final IPTG concentration of 400 μM. Induced and non-induced cell suspensions were dispensed (25 μl/well) into the appropriate wells of the assay plate as discussed previously. The plate was then loaded into a plate reader, incubated at constant temperature, and cell growth was monitored in each well by the measurement of light scattering at 595 nm. Growth was monitored every 5 minutes until the cell culture attained a stationary growth phase. For each concentration of antibiotic, a percentage inhibition of growth was calculated at the time point corresponding to mid-exponential growth for the associated control wells (no antibiotic, plus or minus IPTG). For each antibiotic and condition (plus or minus IPTG), a plot of percent inhibition versus log of antibiotic concentration was generated and the IC50 determined.

Compound | sensitivity to erythromycin ([1]; initial experiments, clones transcribing antisense to protein synthesis genes (L7/L12 & L10, L7/L12 alone, L22, L18, rRNA, Elongation Factor G)) | Fold Increase in Sensitivity [2] [Fold] | Sensitivity Increased? [2] | sensitivity to antibiotics which do not inhibit protein synthesis ([1]; clone transcribing antisense to rplL and rplJ (AS-rplL/J))
CC[C@H]1OC(=O)[C@H](C)[C@@H](O[C@H]2C[C@@](C)(OC)[C@@H](O)[C@H](C)O2)[C@H](C)[C@@H](O[C@@H]2O[C@H](C)C[C@H](N(C)C)[C@H]2O)[C@](C)(O)C[C@@H](C)C(=O)[C@H](C)[C@@H](O)[C@]1(C)O [Erythromycin] | increased sensitivity | 40 | Yes | –
CCn1cc(C(=O)O)c(=O)c2ccc(C)nc21 [Nalidixic acid] | – | 1 | No | does not show increased sensitivity
